Assay results published in patent US20010049393A1, “Methods for defining MYC target genes and uses thereof” (Whitehead Institute for Biomedical Research, priority 1999, published 2001).

Key:
[1] = test system: MYC-ER; assay: Cell cycle (S phase) entry after OHT treatment of MYC-ER transduced human fibroblasts; type: cell-based
Protocol: (§1) Amphotropic viral stocks were generated by co-transfection of pBabe-puro plasmid containing MYC-ER™ or Δ-MYC-ER™ (Littlewood, T. et al., 1995. Nucl. Acids Res. 23:1686-1690) together with Psi^−helper construct (Muller, A. et al., 1991. Mol. Cell. Biol. 11:1785-1792) in 293T cells. Subconfluent WI38 cells (ATCC cat #CCL75) grown in DMEM with 10% FCS were infected with 5 mL of viral supernatant on two consecutive days. The next day, cells were plated at ˜10^4cells/cm^2 in phenol-red free DME medium with 10% FCS, and selected in the presence of puromycin for pBABE vectors. Cells were grown to confluence, for seven to eight days, without media changes. Density arrested cells were induced with 200 nM OHT (4-hydroxy-tamoxifen) or serum starved (0.1% FCS) for 48 hours and then induced. Where specified, cells were exposed to cycloheximide (10 micrograms/mL) for 30 minutes prior to addition of OHT.
Treatment of the transduced cells with OHT, caused 20% of the cells to enter the cell cycle by 17 hours. In contrast, only 1-6% of, OHT-treated, non-MYC-ER expressing controls ever enter S phase. […]

[2] = test system: MYC-ER; assay: Northern blot of p21 transcript after OHT stimulation of MYC-ER; type: cell-based, human; settings: within two hours after OHT stimulation, MYC-ER fibroblasts
Protocol: as §1
Northern blots were performed according to standard procedures (Ausubel, F. et al., 1990. Current Protocols in Molecular Biology. Wiley Interscience, New York). For cyclin D2 and p21, complete cDNA was used as probes. For FKBP52, a PCR amplicon of bps 1215-1767 (accession number M88279) was used; for FABP5 (PA-FA-BP), bps 60-481 (M94856); for ODC1, bps 1198-1984 (X55362); for PPIF (hCyP3), bps 404-803 (M80254); and for EIF5A, bps 46-512 (U17969). […]

4-hydroxytamoxifen [OHT]
cells entering the cell cycle ([1]; MYC-ER transduced fibroblasts, by 17 hours after OHT): 20% | cells entering S phase ([1]; OHT-treated, non-MYC-ER expressing controls): 1-6% | levels of p21 [2]: decreased
